The assay concerns the target T1, KRAS G12C (GMPPNP-loaded) and cRAF Ras-binding domain (Homo sapiens, UniProt P01116, C118S/C51S/C80L/G12C).
T1 construct: truncated version comprising amino acids 1-169
Description: Inhibition of KRAS G12C and cRAF binding (AlphaScreen). The conditions noted are these: KRAS G12C preloaded with GTP analogue GMPPNP, 2 hours preincubation. From the text: The ability of compounds of Formula (A), Formula (B) and Formula (C), and pharmaceutically acceptable salts and/or isotopologues thereof, to inhibit activity of the GTP-bound form of KRAS G12C can be tested using methods such as the in vitro assay described in Example 179 below. Example 179 describes determining, for various compounds, the half-maximal inhibition (IC50) of KRAS G12C loaded with GTP analogue GMPPNP from binding to cRaf, as the Ras-binding domain (RBD). Example 180 describes determining, for various compounds, the half-maximal inhibition (IC50) of KRAS G12C loaded with GTP analogue GMPPNP from binding to PI3Kα, as the Ras-binding domain (RBD). Example 181 describes testing compounds for the ability to inhibit cell viability in MCF10A G12C/A59G mutant, which abrogates GTPase activity, thus preventing hydrolysis of GTP to GDP.
The AlphaScreen technology was used to determine IC50s for compound inhibition of KRAS G12C (present as the Cys-light (C51S, C80L and C118S), truncated version comprising amino acids 1-169) and cRAF interaction. Compounds were diluted in 100% DMSO and each compound concentration was spotted at 200 nl/well onto low volume, white 384 well plates. The KRAS G12C contained a biotin-AviTag and the cRaf, as Ras-binding domain (amino acids 50-131, RBD), was GST-tagged. KRAS G12C was preloaded with the GTP analogue Guanosine 5′-[β,γ-imido]triphosphate (GMPPNP). The KRAS G12C was diluted in 25 mM Hepes, pH 7.4, 150 mM NaCl, 5 mM MgCl2, 0.01% TritonX-100 and 10 μM GMPPNP and added at 10 ul/well to compound-spotted plates resulting in a DMSO concentration of 2%. Plates were incubated for 2 hours. A mixture of RBD and the AlphaScreen streptavidin donor and glutathione acceptor beads diluted in 25 mM Hepes, pH 7.4, 150 mM NaCl, 5 mM MgCl2, 0.01% TritonX-100 and 2% DMSO was then added at 10 ul/well and incubated for 60-90 minutes before the samples were read for emission at 570 nm after excitation of the donor beads at 680 nm. All incubations were performed at room temperature. The final top compound concentration was 50 μM with 1:3 titrations for 10-point dose response curves. Final assay conditions were 0.5 nM KRAS G12C, 0.75 nM RBD and 5 μg/ml each of AlphaScreen donor and acceptor beads. IC50s were determined using nonlinear regression fit of [inhibitor] vs. response (4 parameters). […]
In general terms: Alpha assays give light when donor and acceptor beads are brought close together.
T1 sequence (P01116 1-169 isoform P01116-2 G12C/C51S/C80L/C118S): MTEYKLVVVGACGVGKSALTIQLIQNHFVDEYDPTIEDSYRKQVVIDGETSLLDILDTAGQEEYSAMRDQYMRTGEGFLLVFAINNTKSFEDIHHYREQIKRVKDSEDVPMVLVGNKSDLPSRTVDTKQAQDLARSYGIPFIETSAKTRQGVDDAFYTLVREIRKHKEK
As for `Cc1cc(N)nc(-c2ncc3c(N4CCN(C#N)[C@@H](CC#N)C4)nc(OC[C@@]45CCCN4C[C@H](F)C5)nc3c2F)c1C(F)(F)F` [Example 13, (S)-4-(7-(6-amino-4-methyl-3-(trifluoromethyl)pyridin-2-yl)-8-fluoro-2-(((2R,7aS)-2-fluorohexahydro-1H-pyrrolizin-7a-yl)methoxy)pyrido[4,3-d]pyrimidin-4-yl)-2-(cyanomethyl)piperazine-1-carbonitrile], the concentration for half-maximal inhibition (IC50) (in general, the concentration needed to halve the response being measured) lay in the range of 10 to 100 nM. Turning to `C=CC(=O)N1CC[C@@H](N(C)c2nc(OC[C@@]34CCCN3C[C@H](F)C4)nc3c(F)c(-c4cc(O)ccc4C4CC4)ncc23)C1` [Example 31, 1-((R)-3-((7-(2-cyclopropyl-5-hydroxyphenyl)-8-fluoro-2-(((2R,7aS)-2-fluorotetrahydro-1H-pyrrolizin-7a(5H)-yl)methoxy)pyrido[4,3-d]pyrimidin-4-yl)(methyl)amino)pyrrolidin-1-yl)prop-2-en-1-one], the half-inhibitory concentration (IC50) lay within 10 to 100 nM. Take `C=CC(=O)N1CC[C@@H](N(C)c2nc(OCC34CCCN3CCC4)nc3c2CC(C)C(c2nc(N)cc(C)c2C(F)(F)F)C3)C1` (stereo partly drawn) [Example 32, 1-((3R)-3-((7-(6-amino-4-methyl-3-(trifluoromethyl)pyridin-2-yl)-2-((hexahydro-1H-pyrrolizin-7a-yl)methoxy)-6-methyl-5,6,7,8-tetrahydroquinazolin-4-yl)(methyl)amino)pyrrolidin-1-yl)prop-2-en-1-one]: the IC50 lay in the range of 10 to 100 nM.

With `CN(CC1CN(C(=O)/C=C/c2nc(C(C)(C)O)no2)C1)c1nc(OC[C@@]23CCCN2C[C@H](F)C3)nc2c(F)c(-c3nc(N)cc4cccc(F)c34)ncc12` [Example 35, (E)-1-(3-(((7-(3-amino-8-fluoroisoquinolin-1-yl)-8-fluoro-2-(((2R,7aS)-2-fluorohexahydro-1H-pyrrolizin-7a-yl)methoxy)pyrido[4,3-d]pyrimidin-4-yl)(methyl)amino)methyl)azetidin-1-yl)-3-(3-(2-hydroxypropan-2-yl)-1,2,4-oxadiazol-5-yl)prop-2-en-1-one], the IC50 is under 10 nM. In turn, `CN(C)CC#CC(=O)N1CC[C@@H](N(C)c2nc(OC[C@@]34CCCN3C[C@H](F)C4)nc3c(F)c(-c4nc(N)cc5cccc(Cl)c45)ncc23)C1` [Example 38, 1-((R)-3-((7-(3-amino-8-chloroisoquinolin-1-yl)-8-fluoro-2-(((2R,7aS)-2-fluorohexahydro-1H-pyrrolizin-7a-yl)methoxy)pyrido[4,3-d]pyrimidin-4-yl)(methyl)amino)pyrrolidin-1-yl)-4-(dimethylamino)but-2-yn-1-one] displayed an IC50 of under 10 nM.

On to `C=CC(=O)N1CC[C@@H](N(C)c2nc(OC[C@@]34CCCN3C[C@H](F)C4)nc3c(F)c(-c4nc(N)ccc4C(F)(F)F)ncc23)C1` [Example 46, 1-((R)-3-((7-(6-amino-3-(trifluoromethyl)pyridin-2-yl)-8-fluoro-2-(((2R,7aS)-2-fluorotetrahydro-1H-pyrrolizin-7a(5H)-yl)methoxy)pyrido[4,3-d]pyrimidin-4-yl)(methyl)amino)pyrrolidin-1-yl)prop-2-en-1-one], for which the IC50 lay within 100 to 500 nM. In turn, `CC(C)c1noc(/C=C/C(=O)N2CC[C@@H](N(C)c3nc(OC[C@@]45CCCN4C[C@H](F)C5)nc4c(F)c(-c5nc(N)ccc5C(F)(F)F)ncc34)C2)n1` [Example 47, (E)-1-((R)-3-((7-(6-amino-3-(trifluoromethyl)pyridin-2-yl)-8-fluoro-2-(((2R,7aS)-2-fluorotetrahydro-1H-pyrrolizin-7a(5H)-yl)methoxy)pyrido[4,3-d]pyrimidin-4-yl)(methyl)amino)pyrrolidin-1-yl)-3-(3-isopropyl-1,2,4-oxadiazol-5-yl)prop-2-en-1-one] had an IC50 of 10 to 100 nM. `Cc1noc(/C=C/C(=O)N2CC[C@@H](N(C)c3nc(OC[C@@]45CCCN4C[C@H](F)C5)nc4c(F)c(-c5nc(N)ccc5C(F)(F)F)ncc34)C2)n1` [Example 48, (E)-1-((R)-3-((7-(6-amino-3-(trifluoromethyl)pyridin-2-yl)-8-fluoro-2-(((2R,7aS)-2-fluorotetrahydro-1H-pyrrolizin-7a(5H)-yl)methoxy)pyrido[4,3-d]pyrimidin-4-yl)(methyl)amino)pyrrolidin-1-yl)-3-(3-methyl-1,2,4-oxadiazol-5-yl)prop-2-en-1-one] returned an IC50 of 10 to 100 nM. In turn, `Cc1cc(N)nc(-c2ncc3c(N4CCN(C#N)CC4)nc(OC[C@@]45CCCN4C[C@H](F)C5)nc3c2F)c1C(F)(F)F` [Example 49, 4-(7-(6-amino-4-methyl-3-(trifluoromethyl)pyridin-2-yl)-8-fluoro-2-(((2R,7aS)-2-fluorohexahydro-1H-pyrrolizin-7a-yl)methoxy)pyrido[4,3-d]pyrimidin-4-yl)piperazine-1-carbonitrile] registered an IC50 of 100 to 500 nM. With `Cc1cc(N)nc(-c2ncc3c(N(C)CC4CN(C(=O)/C=C/c5nc(C(C)C)no5)C4)nc(OC[C@@]45CCCN4C[C@H](F)C5)nc3c2F)c1C(F)(F)F` [Example 51, (E)-1-(3-(((7-(6-amino-4-methyl-3-(trifluoromethyl)pyridin-2-yl)-8-fluoro-2-(((2R,7aS)-2-fluorohexahydro-1H-pyrrolizin-7a-yl)methoxy)pyrido[4,3-d]pyrimidin-4-yl)(methyl)amino)methyl)azetidin-1-yl)-3-(3-isopropyl-1,2,4-oxadiazol-5-yl)prop-2-en-1-one] the figure was under 10 nM; with `Cc1noc(/C=C/C(=O)N2CC[C@@H](N(C)c3nc(OC[C@@]45CCCN4C[C@H](F)C5)nc4c(F)c(-c5nc(N)cc(C)c5C)ncc34)C2)n1` [Example 52, (E)-1-((R)-3-((7-(6-amino-3,4-dimethylpyridin-2-yl)-8-fluoro-2-(((2R,7aS)-2-fluorotetrahydro-1H-pyrrolizin-7a(5H)-yl)methoxy)pyrido[4,3-d]pyrimidin-4-yl)(methyl)amino)pyrrolidin-1-yl)-3-(3-methyl-1,2,4-oxadiazol-5-yl)prop-2-en-1-one], 10 to 100 nM; with `Cc1cc(N)nc(-c2ncc3c(N(C)[C@@H]4CCN(C(=O)/C=C/c5nc(C(C)C)no5)C4)nc(OC[C@@]45CCCN4C[C@H](F)C5)nc3c2F)c1C` [Example 53, (E)-1-((R)-3-((7-(6-amino-3,4-dimethylpyridin-2-yl)-8-fluoro-2-(((2R,7aS)-2-fluorotetrahydro-1H-pyrrolizin-7a(5H)-yl)methoxy)pyrido[4,3-d]pyrimidin-4-yl)(methyl)amino)pyrrolidin-1-yl)-3-(3-isopropyl-1,2,4-oxadiazol-5-yl)prop-2-en-1-one], 10 to 100 nM. `C=CC(=O)N1CC(CN(C)c2nc(OC[C@@]34CCCN3C[C@H](F)C4)nc3c(F)c(-c4nc(N)ccc4C(F)(F)F)ncc23)C1` [Example 54, 1-(3-(((7-(6-amino-3-(trifluoromethyl)pyridin-2-yl)-8-fluoro-2-(((2R,7aS)-2-fluorohexahydro-1H-pyrrolizin-7a-yl)methoxy)pyrido[4,3-d]pyrimidin-4-yl)(methyl)amino)methyl)azetidin-1-yl)prop-2-en-1-one] gave an IC50 of 100 to 500 nM.

(Values after patent publication US20260256789A1, “METHODS FOR TREATMENT OF CANCER” (Frontier Medicines Corporation, priority 2022, published 2026).)
